Data on four compounds can be found in ChEMBL document CHEMBL1149839, “Alkaloids from Daphniphyllum oldhami” (2008).

Assay [1] has as its system Platelet. Nature of the assay: Inhibition of PAF-induced platelet aggregation at 1.0 mmol/L. Format: functional.
Assay [2] has as its system Platelet. Nature of the assay: Inhibition of PAF-induced platelet aggregation at 2.4 mmol/L. It is filed as functional.

With `C[C@@H]1CN2[C@H]3[C@@H]4CCC[C@@H]4C(=O)C[C@@H]3[C@]3(C)OC(=O)CC[C@]34CC[C@H]1[C@H]24` [DAPHNIOLDHANINE J], testing at 1000 µM in assay [1] gave an inhibition of 71.6%. `CC(=O)O[C@@H](C[C@]12[C@@H]3CCC[C@@]34CCC3[C@H](O)N4[C@@H]1[C@@H](C(C)C)CC[C@@]32C)C(=O)[C@]1(C)CO[C@@]2(C)CC[C@H]1O2` [DAPHNIOLDHANINE H]: the inhibition (in general, the relative decrease from the control value, in per cent) at 1000 µM in assay [1] was 10.9%. Still for that read-out and setting: with `CCC1=CC[C@]2(CO1)[C@@H]1CCC3=C4[C@H](CC3)[C@H](C(=O)OC)C[C@]42CN(C)C1` [DEHYDRODAPHNIGRACILINE] the figure was 13.4%. Compound `CC(=O)Oc1ccccc1C(=O)O` [ASPIRIN] yielded an inhibition at 2400 µM in assay [2] of 44.9%.
